Paper PMC1978517, “Novel Decapeptides that Bind Avidly and Deliver Radioisotope to Colon Cancer Cells” (PLoS ONE, 2007)

What was measured:
[1] = system: seven avidly binding cell lines (Caco-2, HCT15, HCT116, LoVo, HT29, SEG1, QHTRT); test: Binding of 32P-labeled decapeptide to cell lines, two hour incubation, scintillation counting; format: cell-based; conditions: two hour incubation with 32P-labeled peptide, seven of the eighteen cell lines
Protocol: (§2) Assay of the binding of ^32P-labeled decapeptides to cell lines: Cell lines were grown in complete medium containing 10% bovine fetal serum (heat inactivated). In each well of a 96-well plate, 10,000 cells from various cell lines were grown overnight in complete medium. Ten µl of the labeled-peptide in 1 X PBS and 90 µl of complete medium were added to each well and incubated at 37°C at various times of up to two hours. The peptide-medium was removed and one µl added to 100 ul gel loading buffer and counted by scintillation counting for the probe control or run on a polyacrylamide-SDS gel (Biorad).The adherent cells were briefly and gently washed with complete medium three times and some wells were assayed immediately by adding 100 µl of gel loading buffer to each well and run on a gel or counted in a scintillation counter. Other wells had 100 µl complete medium added and incubated for a further time period. Samples were either counted in a liquid scintillation counter or run on polyacrylamide-SDS gels, exposed to x-ray film, and the film developed.

[2] = system: eleven nonbinding cell lines (HeLa S3, RKO, 1271, A549, KYSE-70, HT1080, 293H, 1459, HEEpiC, T84, SK-BR-3); test: as above; format: cell-based
Protocol: as §2

[3] = system: QH-TRT Barrett's esophagus cell line; test: Release and retention of 32P counts after washing and overnight incubation in complete medium; format: cell-based; conditions: two hour incubation, three washes, overnight at 37°C in complete medium
Protocol: (§1) The peptide binding, washing and assay experiment described for Figure 2 was then repeated in the seven most avidly binding cell lines using MA5, except that after three washes of medium, 200 ul of complete medium was added to each well and the cells were incubated overnight at 37°C. […] Approximately 88% of MA5 radioactive counts initially retained by the colon cancer cell lines was released into the medium, while approximately 12% of initially retained radioactive counts were retained by cells. The two esophageal cell lines that originally retained large amounts of radioactive counts, QH-TRT and SEG1, retained 39% and 37% of their original counts, respectively, after overnight incubation. Caco-2 cells retained the greatest number of counts, averaging 58,305 cpm in triplicate wells containing 10,000 cells each. This figure represents approximately 5.8 cpm, or 348 counts per hour, per cell (i.e., when extrapolated over a potential 2-week exposure period, equivalent to over 87,000 counts per cell).

colon cancer cell lines = test: as above; format: cell-based; conditions: two hour incubation, three washes
Protocol: as §1

[4] = system: SEG1 esophageal adenocarcinoma cell line; test: as above; format: cell-based; conditions: two hour incubation, three washes, overnight at 37°C in complete medium
Protocol: as §1

[5] = system: seven avidly binding cell lines; test: as above; format: cell-based; conditions: all seven avidly binding lines
Protocol: as §1

[6] = system: Caco-2 colon adenocarcinoma cell line
Protocol: as §2

Caco-2 cells = test: Release and retention of 32P counts after washing and further incubation in complete medium; format: cell-based
Protocol: as §1

[7] = two hour incubation, three washes, 10,000 cells
[8] = two hours incubation, three wash steps, overnight incubation in medium

With GSRRASVASA [MA5] the “retention of radioactivity (in words)” value [1] was “very strong retention of radioactivity”, the “binding (in words)” value ([2]; two hour incubation with 32P-labeled peptide, eleven of eighteen cell lines) was “did not bind” and the “average 32P counts bound, remaining eleven cell lines along with one blank well” value [2, 7] was 365 cpm. For the same sequence, the “mean values of 32P counts bound, blank wells and nonbinding cell lines” value [2, 7] was “less than 550 cpm”, the “original counts retained after overnight incubation” value [3] was 39% and the “radioactive counts initially retained that were released into the medium” value (colon cancer cell lines; 200 ul complete medium, overnight at 37°C) was “Approximately 88%”. For the same sequence, the “initially retained radioactive counts retained by cells” value (colon cancer cell lines; overnight at 37°C in complete medium) was “approximately 12%”, the “original counts retained after overnight incubation” value [4] was 37% and the “radioactivity released after an overnight incubation” value [5] was 63% to 88. For the same sequence, the “ratio of cpm retained by Caco-2 to the average of the eleven nonbinding cell lines” value ([6]; Caco-2) was 818, the “share of the total radioactive counts present in the incubation well retained by cells” value ([6]; after two-hour incubation) was “approximately 18%” and the “radioactive dose transferred per cell” value ([6]; two hour incubation, wash, immediate determination of retained radioactivity) was “over 29 counts per minute per cell”. For the same sequence, the “retention difference between variants (MA2 vs MA5)” value ([6]; two hours' incubation, counts bound as percentage of total counts) was 70 fold, the “time course of release of counts (in words)” value (Caco-2 cells; 48-hour time period after two hour incubation and washing, triplicate determinations) was “majority of the total counts released over the 48 hour time period are released by nine hours of incubation” and the “counts retained by cells after overnight incubation” value (Caco-2 cells; average of triplicate wells containing 10,000 cells each, two hour incubation, washes, overnight in medium) was 58,305 cpm. For the same sequence, the “counts per cell extrapolated over a potential 2-week exposure period” value (Caco-2 cells; extrapolated) was “over 87,000 counts per cell”, the “counts per cell per day, extrapolated” value (Caco-2 cells; extrapolated from 5.8 cpm per cell) was “over 8,300 counts per cell per day” and the “originally retained 32P isotope released” value (Caco-2 cells; [8]) was 88%. For the same sequence, the “originally retained 32P isotope retained by cells” value (Caco-2 cells; [8]) was 12%.
